Experimental data as given in patent publication US4939142A, “Substituted styrene derivatives” (priority 1989, dated 1990).

Key:
[1] = test system: nicotine spasm and lethality; assay: Inhibition of nicotine spasm and lethality on mice (Stone); type: in vivo; conditions: Table VIII; for ED50: Mus musculus, oral, 1 h before nicotine 1.4 mg/kg i.v.; for Therapeutical index: nicotine spasm and lethality, LD50/ED50
Excerpt: [Stone, C. C., Mecklenburg, K. L., Torchiana, M. L.: Arch. Int.

[2] = test system: pentetrazole spasm; assay: Inhibition of pentetrazol spasm on mice; conditions: for ED50: Mus musculus, po; for Therapeutical index: Table V, pentetrazole spasm, LD50/ED50
Experimental: The modified method of Benziger and Hane is used on white mice. Groups consisting of 6 animals are used for each dose. […] The test compounds are administered orally one hour before the treatment with pentetrazole; in the control group the animals obtain the carrier orally at the same points of time.
The therapeutical index data disclosed in the above Tables are calculated by means of the following equation: [formula]

[3] = in vivo; conditions: mouse, in vivo, po
Experimental: (§1) Male and female white mice (CFLP strain, 18-22 g) are used, 10 animals per dose. The test compounds are administered orally in a volume of 20 ml/kg. After administration the mice are observed for a period of 7 days. The animals are kept in plastic boxes, on wood litter, at room temperature. The animals receive standard mouse fodder and tap water ad libitum.

[4] = test system: tetrabenazine ptosis; assay: Tetrabenazin ptosis antagonism (Hoffmeister et al.); type: in vivo; conditions: Table III; for ED50: Mus musculus, oral, 30 min before tetrabenazin 50 mg/kg i.p.
Experimental: The test is carried out by the method of Hoffmeister et al. adapted to mice. Groups consisting of 10-20 animals are treated orally with each dose of the test compound. The control group is treated orally with the carrier. Thirty minutes later a 50 mg/kg i.p. tetrabenazine dose is administered, whereupon after 30, 60, 90 and 120 minutes the animals with closed eye-lids are counted in each group.
On the basis of all measurements an average ptosis is calculated for each group and expressed as the percentile deviation (inhibition) from the control group. On the basis of the data thus obtained ED50 values are calculated.
[Hoffmeister, F., Wuttke, W., and Kroneberg, G.: Arzneim. Forsch. (Drug.

[5] = test system: hexobarbital narcosis; assay: Hexobarbital narcosis potentiating effect; conditions: for ED50: Mus musculus, po; for Therapeutical index LD50 /ED50: Table I, hexobarbital narcosis
Experimental: The test is carried out on white mice. Groups consisting of six mice are used for each dose and test compound. The test compound is administered orally and an hour after this treatment narcosis is induced by means of a 40 mg/kg i.v. dose of hexobarbital. The control group receives carrier instead of the test compound.
Those mice are considered to be having a positive reaction which show a narcosis time at least 2.5 times longer than that of the control group. The ED50 values thus transformed are calculated.

[6] = test system: motility; assay: animal or person; type: in vivo; conditions: for ED50: Mus musculus, po; for Therapeutical index: Table II, motility inhibition, LD50/ED50
Experimental: The test is accomplished according to the method of Borsy et al. in a 10-channel Dews system equipment, whereby 3 mice are used per channel. The test compound or the carrier, respectively, is administered orally, and one hour after the said treatment the animals are placed into the apparatus and the number of the interruptions of infrared radiation is registered for 30 minutes.
The results are summarized in Table II and documented by means of suitable statistics for each experiment.
[J. Borsy, E. Csanyi, I. Lazar: Arch. Int. Pharmacodyn. 124, 1 (1960)].

[7] = test system: maximal electroshock; assay: Inhibition of maximal electroshock on mice; conditions: for ED50: Mus musculus, po; for Therapeutical index: Table VI, maximal electroshock, LD50/ED50
Experimental: The test is carried out on white mice weighing 20-25 g. The animals receive an electric shock through corneal electrodes (50 Hz; 45 mA, 0.4 sec.). A total inhibition of the tonus extensor spasms of the posterior extremities is regarded as the criterium of anticonvulsive effect. The test compound and the carrier, respectively, are administered orally an hour before the electric shock.

[8] = test system: mice; assay: in vivo; conditions: 10080 min
Experimental: as §1

[9] = test system: acetic acid writhing; assay: Acetic acid "writhing test" on mice (Newbould); type: in vivo, white mice; conditions: Table VII; for ED50: Mus musculus, oral, 1 h before acetic acid i.p., read-out: ED50; for Therapeutical index: acetic acid writhing, LD50/ED50
Experimental: In the period between the 5th and 10th minutes following the administration of acetic acid the number of the characteristic "writhing" responses is counted for each animal and the "total writhing number" (within 5 minutes) is expressed as the percentage of the value obtained for the control animals. The mice are treated with the test compound and the carrier, respectively, orally 1 hour before the administration of acetic acid. 12 animals are used per dose.
[Newbould, B. D.: Brit.

[10] = test system: ulcus secretion; assay: animal or person; type: in vivo; conditions: for ED50: Rattus norvegicus, po, 5 h; for Therapeutical index: Table X, ulcus secretion, LD50/ED50
Experimental: The test is carried out according to the method of Nakamura on rats (Wistar strain) weighing 150-230 g and fasted for 48 hours. Each animal group consists of 4 male and 4 female rats. On the day of the experiment the pylorus of the animals is bound and the corresponding dose of the test compound is administered orally immidiately after operation. The animals are killed with ether 5 hours after the operation, their stomach is removed, cut along the large curve and placed on plastic plates.

[11] = test system: yohimbin toxicity; assay: animal or person
Experimental: The test is carried out according to the method of Quinton. Groups consisting of 10 mice are used for each dose. The animal groups are treated with the suitable doses of the test compounds while the control group is treated with a carrier. An hour after the treatment a sublethal dose of yohimbin is administered intraperitoneally in a volume of 20 ml/kg. The perished animals are counted after 1 and 24 hours.

With `CC(CO/N=C1C=C(/C=C/c2ccc(Cl)cc2)CC(C)(C)C/1)CN(C)C` (racemic) [Example 18, D,L-5,5-Dimethyl-3-(E)-[(4'-chloro-phenyl)-vinyl]-1-(E)-(3"-dimethylamino-2"-methyl-propoxyimino)-2-cyclohexene] the ED50 [1] was 88 mg/kg, the Therapeutical index [1] was 22.7 and the ED50 [2] was 190 mg/kg. It also gave a Therapeutical index [2] of 10.5, an LD50 at 168 h [3] of 2000 mg/kg and an ED50 [4] of 40 mg/kg. For the same compound, the Therapeutical index ([4]; tetrabenazin ptosis, LD50/ED50) was 50.0.
For `CC(CO/N=C1C=C(/C=C/c2ccccc2)CC(C)(C)C/1)CN(C)C` (racemic) [Example 13, D,L-5,5-Dimethyl-3-(E)-phenyl-vinyl-1-(E)-(3'-dimethylamino-2'-methyl-propoxyimino)-2-cyclohexene], the ED50 [5] was 9 mg/kg, the “Therapeutical index LD50 /ED50” value [5] was 200.0 and the LD50 at 168 h [3] was 1800 mg/kg. It also gave an ED50 [6] of 100 mg/kg, a Therapeutical index [6] of 18.0 and an ED50 [7] of 64 mg/kg. It also gave a Therapeutical index [7] of 28.1.
For `COc1cccc(/C=C/C2=CC(=N/OCCN3CCOCC3)/CC(C)(C)C2)c1` [Example 29, 5,5-Dimethyl-3-(E)-[(3'-methoxy-phenyl)-vinyl]-1-(E)-(N-morpholino-ethoxyimino)-2-cyclohexene], the ED50 [5] was 21.5 mg/kg, the “Therapeutical index LD50 /ED50” value [5] was > 93.0 and the LD50 at 168 h [3] was > 2000 mg/kg. The LD50 ([8]; Table I, oral, mice) was > 2000 mg/kg, the LD50 ([8]; Table II, oral, mice) was > 2000 mg/kg and the LD50 ([8]; Table X) was “above 2000 mg/kg”. The ED50 [6] was ~200 mg/kg, the Therapeutical index [6] was > 10.0 and the ED50 [9] was ~160 mg/kg. The Therapeutical index [9] was > 12.5, the ED50 [10] was ~200 mg/kg and the Therapeutical index [10] was “above 10.0”.
With `CC1(C)CC(/C=C/c2cccc(Cl)c2)=CC(=N/OCCCN2CCOCC2)/C1` [Example 34, 5,5-Dimethyl-3-(E)-[(3'-chloro-phenyl)-vinyl]-1-(E)-(N-morpholino-propoxyimino)-2-cyclohexene] the ED50 [2] was 180 mg/kg, the Therapeutical index [2] was > 11.0 and the LD50 at 168 h [3] was > 2000 mg/kg. For the same compound, the LD50 ([8]; Table VII, oral, mice) was > 2000 mg/kg, the LD50 ([8]; Table X) was “above 2000 mg/kg” and the ED50 [9] was ~200 mg/kg. For the same compound, the Therapeutical index [9] was > 10.0, the ED50 [10] was ~100 mg/kg and the Therapeutical index [10] was “above 20.0”.
Compound `CN(C)CCC=C1c2ccccc2CCc2ccccc21` [Amitriptylin, reference compound] has an ED50 [4] of 12 mg/kg, an ED50 ([11]; Mus musculus) of 12.5 mg/kg and a Therapeutical index ([11]; Table IV, yohimbin toxicity, LD50/ED50) of 18.
With `CN(C)CCCO/N=C1C=C(/C=C/c2ccccc2)CC(C)(C)C/1` [Example 1, 5,5-Dimethyl-3-(E)-phenyl-vinyl-1-(E)-(3'-dimethylamino-propoxyimino)-2-cyclohexene] the ED50 [1] was 12 mg/kg, the Therapeutical index [1] was 108.0 and the ED50 [2] was 56 mg/kg. For the same compound, the Therapeutical index [2] was 23.2, the LD50 at 168 h [3] was 1300 mg/kg and the ED50 [6] was 60 mg/kg. The Therapeutical index [6] was 22.0, the ED50 [9] was 160 mg/kg and the Therapeutical index [9] was 8.1. It also gave an ED50 [7] of 110 mg/kg and a Therapeutical index [7] of 11.8.
`CN(C)CCO/N=C1C=C(/C=C/c2ccccc2)CC(C)(C)C/1` [Example 3, 5,5-Dimethyl-3-(E)-phenyl-vinyl-1-(E)-(2'-dimethylamino-ethoxyimino)-2-cyclohexene] showed an ED50 [1] of 33 mg/kg, a Therapeutical index [1] of 30.3 and an ED50 [2] of 68 mg/kg. It also gave a Therapeutical index [2] of 14.7, an LD50 at 168 h [3] of 1000 mg/kg and an ED50 [6] of 58 mg/kg. It also gave a Therapeutical index [6] of 17.0, an ED50 [7] of 88 mg/kg and a Therapeutical index [7] of 11.4.
With `CC1(C)CC(/C=C/c2ccccc2Cl)=CC(=N/OCCN2CCCCC2)/C1` [Example 26, 5,5-Dimethyl-3-(E)-[(2'-chloro-phenyl)-vinyl]-1-(E)-(N-piperdinyl-ethoxyimino)-2-cyclohexene] the LD50 at 168 h [3] was > 1000 mg/kg, the LD50 ([8]; Table II, oral, mice) was > 1000 mg/kg and the ED50 [6] was ~200 mg/kg. The Therapeutical index [6] was > 5.0, the ED50 [10] was ~50 mg/kg and the Therapeutical index [10] was “above 20”.
